According to paper PMC5218480 (PLoS ONE, 2017):

Test system: MV-4-11 cells
Assay: Gene expression microarray analysis (Affymetrix PrimeView) and GSEA
Assay type: cell-based, human
Parameters: RFU PODN (11730768_x_at) / Fold change /veh PODN (11730768_x_at) / RFU LINC00158 (11744669_a_at) / Fold change /veh LINC00158 (11744669_a_at) / RFU DUSP10 (11751237_a_at) / Fold change /veh DUSP10 (11751237_a_at) / RFU ID3 (11757404_x_at) / Fold change /veh ID3 (11757404_x_at) / RFU PLEKHG5 (11737974_s_at) / Fold change /veh PLEKHG5 (11737974_s_at) / RFU LRRC4B (11730491_at) / Fold change /veh LRRC4B (11730491_at) / RFU GIMAP4 (11747438_a_at) / Fold change /veh GIMAP4 (11747438_a_at) / RFU KRT8 (11758183_x_at) / Fold change /veh KRT8 (11758183_x_at) / RFU CNN1 (11734310_a_at) / Fold change /veh CNN1 (11734310_a_at) / RFU VPS37D (11726825_at) / Fold change /veh VPS37D (11726825_at) / RFU C10orf10 (11716522_x_at) / Fold change /veh C10orf10 (11716522_x_at) / RFU KIR2DL2 /// KIR2DL4 /// KIR2DL5A /// KIR2DL5B /// KIR2DS1 /// KIR2DS2 /// KIR2DS3 /// KIR2DS4 /// KIR3DL3 /// KIR3DL3 /// KIR3DS1 (11738374_at) / Fold change /veh KIR2DL2 /// KIR2DL4 /// KIR2DL5A /// KIR2DL5B /// KIR2DS1 /// KIR2DS2 /// KIR2DS3 /// KIR2DS4 /// KIR3DL3 /// KIR3DL3 /// KIR3DS1 (11738374_at) / RFU C1QL1 (11718748_at) / Fold change /veh C1QL1 (11718748_at) / RFU TMPRSS4 (11747572_a_at) / Fold change /veh TMPRSS4 (11747572_a_at) / RFU HAMP (11756126_x_at) / Fold change /veh HAMP (11756126_x_at) / RFU RNFT2 (11725882_a_at) / Fold change /veh RNFT2 (11725882_a_at) / RFU NR4A2 (11747474_a_at) / Fold change /veh NR4A2 (11747474_a_at) / RFU ABCC12 (11746883_a_at) / Fold change /veh ABCC12 (11746883_a_at) / RFU TMEM136 (11760407_x_at) / Fold change /veh TMEM136 (11760407_x_at) / RFU CLDN22 /// WWC2 (11732394_at) / Fold change /veh CLDN22 /// WWC2 (11732394_at) / RFU HLA-DPB1 (11760878_x_at) / Fold change /veh HLA-DPB1 (11760878_x_at) / RFU SPINT1 (11716480_a_at) / Fold change /veh SPINT1 (11716480_a_at) / RFU GAP43 (11754022_s_at) / Fold change /veh GAP43 (11754022_s_at) / RFU A4GNT (11735810_at) / Fold change /veh A4GNT (11735810_at) / RFU PRB3 (11715151_x_at) / Fold change /veh PRB3 (11715151_x_at) / RFU TUBB4B (11761932_at) / Fold change /veh TUBB4B (11761932_at) / RFU CAPN14 (11732068_a_at) / Fold change /veh CAPN14 (11732068_a_at) / RFU TMCC2 (11721928_a_at) / Fold change /veh TMCC2 (11721928_a_at) / RFU IRGQ (11745062_a_at) / Fold change /veh IRGQ (11745062_a_at) / RFU FAM174B (11720279_a_at) / Fold change /veh FAM174B (11720279_a_at) / RFU TMPRSS4 (11748680_a_at) / Fold change /veh TMPRSS4 (11748680_a_at) / RFU FAM212B (11763350_a_at) / Fold change /veh FAM212B (11763350_a_at) / RFU PLEKHG5 (11743358_a_at) / Fold change /veh PLEKHG5 (11743358_a_at) / RFU ZSCAN30 (11745921_a_at) / Fold change /veh ZSCAN30 (11745921_a_at) / RFU CMKLR1 (11741424_a_at) / Fold change /veh CMKLR1 (11741424_a_at) / RFU LOC101060620 /// MAPK8IP1 (11723275_at) / Fold change /veh LOC101060620 /// MAPK8IP1 (11723275_at) / RFU SPTSSB (11747773_x_at) / Fold change /veh SPTSSB (11747773_x_at) / RFU PRSS12 (11739890_at) / Fold change /veh PRSS12 (11739890_at) / RFU BIN1 (11741810_x_at) / Fold change /veh BIN1 (11741810_x_at) / RFU WNT11 (11732464_a_at) / Fold change /veh WNT11 (11732464_a_at) / RFU C10orf10 (11716521_a_at) / Fold change /veh C10orf10 (11716521_a_at) / RFU C5orf56 (11738089_at) / Fold change /veh C5orf56 (11738089_at) / RFU CYB561 (11721691_x_at) / Fold change /veh CYB561 (11721691_x_at) / RFU ANKRD19P (11752326_a_at) / Fold change /veh ANKRD19P (11752326_a_at) / RFU OR2T12 /// OR2T33 /// OR2T8 (11738714_s_at) / Fold change /veh OR2T12 /// OR2T33 /// OR2T8 (11738714_s_at) / RFU VCAN (11748164_a_at) / Fold change /veh VCAN (11748164_a_at) / RFU JSRP1 (11732532_at) / Fold change /veh JSRP1 (11732532_at) / RFU KRTAP10-11 (11738290_x_at) / Fold change /veh KRTAP10-11 (11738290_x_at) / RFU MYO3A (11730013_a_at) / Fold change /veh MYO3A (11730013_a_at) / RFU EBF3 (11725865_a_at) / Fold change /veh EBF3 (11725865_a_at) / RFU CAMK2N1 (11719241_x_at) / Fold change /veh CAMK2N1 (11719241_x_at) / RFU C5orf56 (11738088_a_at) / Fold change /veh C5orf56 (11738088_a_at) / RFU OLFML3 (11715873_a_at) / Fold change /veh OLFML3 (11715873_a_at) / RFU LOC100653217 /// NTM (11731650_a_at) / Fold change /veh LOC100653217 /// NTM (11731650_a_at) / RFU MAPK11 (11762145_a_at) / Fold change /veh MAPK11 (11762145_a_at) / RFU FIZ1 (11724087_x_at) / Fold change /veh FIZ1 (11724087_x_at) / RFU OASL (11726364_x_at) / Fold change /veh OASL (11726364_x_at) / RFU SOX15 (11748057_x_at) / Fold change /veh SOX15 (11748057_x_at) / RFU CD79A (11719716_a_at) / Fold change /veh CD79A (11719716_a_at) / RFU HIST1H1D (11736915_at) / Fold change /veh HIST1H1D (11736915_at) / RFU CASKIN2 (11723855_a_at) / Fold change /veh CASKIN2 (11723855_a_at) / RFU LOC730098 (11760151_x_at) / Fold change /veh LOC730098 (11760151_x_at) / RFU OR4N2 (11742367_at) / Fold change /veh OR4N2 (11742367_at) / RFU PRRT2 (11749266_a_at) / Fold change /veh PRRT2 (11749266_a_at) / RFU SNX32 (11753110_a_at) / Fold change /veh SNX32 (11753110_a_at) / RFU CDHR5 (11726645_a_at) / Fold change /veh CDHR5 (11726645_a_at) / RFU RCAN1 (11760418_a_at) / Fold change /veh RCAN1 (11760418_a_at) / RFU FAM167A (11723789_a_at) / Fold change /veh FAM167A (11723789_a_at) / RFU FAM26E (11764081_at) / Fold change /veh FAM26E (11764081_at) / RFU ISYNA1 (11749810_s_at) / Fold change /veh ISYNA1 (11749810_s_at) / RFU ACY1 (11761880_at) / Fold change /veh ACY1 (11761880_at) / RFU 11764098_at / Fold change /veh 11764098_at / RFU SAMD14 (11745864_x_at) / Fold change /veh SAMD14 (11745864_x_at) / RFU NPB (11741838_a_at) / Fold change /veh NPB (11741838_a_at) / RFU TMPRSS6 (11731388_a_at) / Fold change /veh TMPRSS6 (11731388_a_at) / RFU KRTAP10-2 (11738614_at) / Fold change /veh KRTAP10-2 (11738614_at) / RFU ARHGAP8 /// PRR5-ARHGAP8 (11727945_x_at) / Fold change /veh ARHGAP8 /// PRR5-ARHGAP8 (11727945_x_at) / RFU KRTAP5-7 /// NADSYN1 (11734609_at) / Fold change /veh KRTAP5-7 /// NADSYN1 (11734609_at) / RFU RASL12 (11751679_a_at) / Fold change /veh RASL12 (11751679_a_at) / RFU CDKN2B (11736163_a_at) / Fold change /veh CDKN2B (11736163_a_at) / RFU PRF1 (11729649_at) / Fold change /veh PRF1 (11729649_at) / RFU, ZNF638 /// ZNF638-IT1 / Fold change vs veh, ZNF638 /// ZNF638-IT1 / RFU, PANK3 / Fold change vs veh, PANK3 / RFU, SH3YL1 / Fold change vs veh, SH3YL1 / RFU, ZEB2 / Fold change vs veh, ZEB2 / RFU, NRIP1 / Fold change vs veh, NRIP1 / RFU, PTTG1IP / Fold change vs veh, PTTG1IP / RFU, CAPN2 / Fold change vs veh, CAPN2 / RFU, MED14 / Fold change vs veh, MED14 / RFU, SNORA58 / Fold change vs veh, SNORA58 / RFU, C1orf63 / Fold change vs veh, C1orf63 / RFU, LRRFIP1 / Fold change vs veh, LRRFIP1 / RFU, NDUFAF7 / Fold change vs veh, NDUFAF7 / RFU, SLC12A2 / Fold change vs veh, SLC12A2 / RFU, IBTK / Fold change vs veh, IBTK / RFU, ESF1 / Fold change vs veh, ESF1 / Fold change vs veh, TMEM50B / RFU, TAOK1 / Fold change vs veh, TAOK1 / RFU, ACBD3 / Fold change vs veh, ACBD3 / RFU, TMA16 / Fold change vs veh, TMA16 / RFU, RWDD3 / Fold change vs veh, RWDD3 / RFU, BCAT1 / Fold change vs veh, BCAT1 / RFU, EDEM3 / Fold change vs veh, EDEM3 / RFU, TMEM33 / Fold change vs veh, TMEM33 / RFU, WDR75 / Fold change vs veh, WDR75 / RFU, AHCTF1 / Fold change vs veh, AHCTF1 / RFU, TFRC / Fold change vs veh, TFRC / RFU, ZDHHC17 / Fold change vs veh, ZDHHC17 / RFU, NOM1 / Fold change vs veh, NOM1 / RFU, ARL8B / Fold change vs veh, ARL8B / RFU, ZBTB11 / Fold change vs veh, ZBTB11 / RFU, TAMM41 / Fold change vs veh, TAMM41 / RFU, KIAA1704 /// LOC100996395 / Fold change vs veh, KIAA1704 /// LOC100996395 / RFU, ING1 / Fold change vs veh, ING1 / RFU, TRMT61B / Fold change vs veh, TRMT61B / RFU, FUBP3 / Fold change vs veh, FUBP3 / RFU, TP53 / Fold change vs veh, TP53 / RFU, TNKS2 / Fold change vs veh, TNKS2 / RFU, ZFP14 / Fold change vs veh, ZFP14 / RFU, ACTR2 / Fold change vs veh, ACTR2 / RFU, PPP3R1 / Fold change vs veh, PPP3R1 / RFU, PIK3R1 / Fold change vs veh, PIK3R1 / RFU, HNRNPA1 / Fold change vs veh, HNRNPA1 / RFU, RNF170 / Fold change vs veh, RNF170 / RFU, ZNF28 / Fold change vs veh, ZNF28 / RFU, RNGTT / Fold change vs veh, RNGTT / RFU, OGT / Fold change vs veh, OGT / RFU, BRD1 / Fold change vs veh, BRD1 / RFU, MARS / Fold change vs veh, MARS / RFU, ZNF655 / Fold change vs veh, ZNF655 / RFU, FAHD1 / Fold change vs veh, FAHD1 / RFU, BDP1 / Fold change vs veh, BDP1 / RFU, LRRCC1 / Fold change vs veh, LRRCC1 / RFU, ARID1A / Fold change vs veh, ARID1A / RFU, ZNF146 / Fold change vs veh, ZNF146 / RFU, ZNF330 / Fold change vs veh, ZNF330 / RFU, GPN3 / Fold change vs veh, GPN3 / RFU, C9orf123 / Fold change vs veh, C9orf123 / RFU, N4BP2L2 / Fold change vs veh, N4BP2L2 / RFU, ARFIP1 / Fold change vs veh, ARFIP1 / RFU, FAM179B / Fold change vs veh, FAM179B / RFU, BCL10 / Fold change vs veh, BCL10 / RFU, UHRF1BP1L / Fold change vs veh, UHRF1BP1L / RFU, BET1 / Fold change vs veh, BET1 / RFU, CNOT2 / Fold change vs veh, CNOT2 / RFU, ZNF268 / Fold change vs veh, ZNF268 / Fold change vs veh, ZNF507 / RFU, DGCR2 / Fold change vs veh, DGCR2 / RFU, WDSUB1 / Fold change vs veh, WDSUB1 / Fold change vs veh, HSP90B1 /// MIR3652 / RFU, ADSS / Fold change vs veh, ADSS / RFU, GK / Fold change vs veh, GK / RFU, ZNF148 / Fold change vs veh, ZNF148 / RFU, TAF9 / Fold change vs veh, TAF9 / RFU, SLC1A5 / Fold change vs veh, SLC1A5 / RFU, SLMO2 / Fold change vs veh, SLMO2 / RFU, ABCC4 / Fold change vs veh, ABCC4 / RFU, LOC101060439 /// RAP1B / Fold change vs veh, LOC101060439 /// RAP1B / RFU, RFX7 / Fold change vs veh, RFX7 / RFU, GTPBP10 / Fold change vs veh, GTPBP10 / RFU, CNEP1R1 / Fold change vs veh, CNEP1R1 / RFU, BIVM-ERCC5 /// ERCC5 / Fold change vs veh, BIVM-ERCC5 /// ERCC5 / RFU, ILF3 / Fold change vs veh, ILF3 / RFU 11762660_at / Fold change /veh 11762660_at / RFU VCAN (11757783_s_at) / Fold change /veh VCAN (11757783_s_at) / RFU DDX43 (11728927_at) / Fold change /veh DDX43 (11728927_at) / RFU KRT8 (11758188_x_at) / Fold change /veh KRT8 (11758188_x_at) / RFU NKD1 (11759106_at) / Fold change /veh NKD1 (11759106_at) / RFU SRD5A1 (11742802_a_at) / Fold change /veh SRD5A1 (11742802_a_at) / RFU TPSAB1 /// TPSB2 (11721975_s_at) / Fold change /veh TPSAB1 /// TPSB2 (11721975_s_at) / RFU GSTM3 (11746129_a_at) / Fold change /veh GSTM3 (11746129_a_at) / RFU IL23R (11737362_x_at) / Fold change /veh IL23R (11737362_x_at) / RFU TMEM51 (11727254_a_at) / Fold change /veh TMEM51 (11727254_a_at) / RFU PIWIL2 (11732686_x_at) / Fold change /veh PIWIL2 (11732686_x_at) / RFU ORM1 (11744905_x_at) / Fold change /veh ORM1 (11744905_x_at) / RFU CCDC152 (11743942_at) / Fold change /veh CCDC152 (11743942_at) / RFU ECM1 (11717891_a_at) / Fold change /veh ECM1 (11717891_a_at) / RFU IL23R (11748794_a_at) / Fold change /veh IL23R (11748794_a_at) / RFU TNFAIP8L3 (11732012_x_at) / Fold change /veh TNFAIP8L3 (11732012_x_at) / RFU MBOAT4 (11741988_at) / Fold change /veh MBOAT4 (11741988_at) / RFU 11764193_at / Fold change /veh 11764193_at / RFU TMEM53 (11763286_at) / Fold change /veh TMEM53 (11763286_at) / RFU MAGEB2 (11727129_at) / Fold change /veh MAGEB2 (11727129_at) / RFU TMEM200A (11744735_a_at) / Fold change /veh TMEM200A (11744735_a_at) / RFU CCDC152 (11751479_a_at) / Fold change /veh CCDC152 (11751479_a_at) / RFU FAM211A (11726209_a_at) / Fold change /veh FAM211A (11726209_a_at) / RFU RGS16 (11746705_a_at) / Fold change /veh RGS16 (11746705_a_at) / RFU VCAN (11755009_s_at) / Fold change /veh VCAN (11755009_s_at) / RFU RHOB (11743442_s_at) / Fold change /veh RHOB (11743442_s_at) / RFU RGS16 (11720943_a_at) / Fold change /veh RGS16 (11720943_a_at) / RFU RGS16 (11720944_at) / Fold change /veh RGS16 (11720944_at) / RFU, VPS4B / Fold change vs veh, VPS4B / RFU, CREB1 / Fold change vs veh, CREB1 / RFU, DNAJC13 / Fold change vs veh, DNAJC13 / RFU, GNAQ / Fold change vs veh, GNAQ / RFU, CDK5R1 / Fold change vs veh, CDK5R1 / RFU, ZRANB3 / Fold change vs veh, ZRANB3 / RFU, CUL4A / Fold change vs veh, CUL4A / RFU, CCNY / Fold change vs veh, CCNY / RFU, UFL1 / Fold change vs veh, UFL1 / RFU, COG3 / Fold change vs veh, COG3 / RFU, DIAPH2 / Fold change vs veh, DIAPH2 / RFU, SKA2 / Fold change vs veh, SKA2 / RFU, AFF3 / Fold change vs veh, AFF3 / RFU, LMF1 / Fold change vs veh, LMF1 / RFU, IPO11 / Fold change vs veh, IPO11 / RFU, DFFB / Fold change vs veh, DFFB / RFU, FOXP1 / Fold change vs veh, FOXP1 / RFU, CARD8 / Fold change vs veh, CARD8 / RFU, STRN3 / Fold change vs veh, STRN3 / RFU, ADK / Fold change vs veh, ADK / RFU, RASSF2 / Fold change vs veh, RASSF2 / RFU, WIPF1 / Fold change vs veh, WIPF1 / RFU, LARP1B / Fold change vs veh, LARP1B / RFU, RASA1 / Fold change vs veh, RASA1 / RFU, RB1 / Fold change vs veh, RB1 / RFU, PPFIA1 / Fold change vs veh, PPFIA1 / RFU, MAT2A / Fold change vs veh, MAT2A / RFU, CCT5 / Fold change vs veh, CCT5 / RFU, WDR92 / Fold change vs veh, WDR92 / RFU, CUX1 / Fold change vs veh, CUX1 / RFU, TTC7A / Fold change vs veh, TTC7A / RFU, TMEM135 / Fold change vs veh, TMEM135 / RFU, DEPTOR / Fold change vs veh, DEPTOR / RFU, CPM / Fold change vs veh, CPM / RFU, DNAJB6 / Fold change vs veh, DNAJB6 / RFU, CACNA2D3 / Fold change vs veh, CACNA2D3 / RFU, DTX4 / Fold change vs veh, DTX4 / RFU, TFCP2 / Fold change vs veh, TFCP2 / RFU, GMCL1 /// GMCL1P1 / Fold change vs veh, GMCL1 /// GMCL1P1 / RFU, AEBP2 / Fold change vs veh, AEBP2 / RFU, SNHG1 /// SNORD22 /// SNORD25 /// SNORD26 /// SNORD27 /// SNORD28 /// SNORD29 /// SNORD31 / Fold change vs veh, SNHG1 /// SNORD22 /// SNORD25 /// SNORD26 /// SNORD27 /// SNORD28 /// SNORD29 /// SNORD31 / Fold change (Aza/veh), C12orf56 (ProbeSet 11735607_a_at) / Fold change (ACY-1035/veh), C12orf56 (ProbeSet 11735607_a_at) / Fold change (Aza/veh), FGFR1OP (ProbeSet 11751329_s_at) / Fold change (ACY-1035/veh), FGFR1OP (ProbeSet 11751329_s_at) / Fold change (Aza/veh), VPS36 (ProbeSet 11739960_a_at) / Fold change (ACY-1035/veh), VPS36 (ProbeSet 11739960_a_at) / RFU SYPL1 (11715823_x_at) / Fold change /veh SYPL1 (11715823_x_at) / RFU IGFBP7 (11715501_s_at) / Fold change /veh IGFBP7 (11715501_s_at) / RFU REEP3 (11722064_at) / Fold change /veh REEP3 (11722064_at) / RFU IGLL1 (11728026_x_at) / Fold change /veh IGLL1 (11728026_x_at): dose or concentration left out as unconfirmed
Conditions: MV-4-11 cells, 48 hours

SMILES: Nc1ccc(-c2cccs2)cc1NC(=O)c1ccc2c(c1)cc(C1CC1)n2CCN1CCOCC1 [ACY-1035]
- Fold change /veh FAM174B (11720279_a_at): 1.09
